Patent publication US6653442B1, “Protegrins” (priority 1993, dated 2003)
Bridge positions count the residues as written; N and C are the ends. Ends that are not written are not given here. Peptide text beside a SMILES is read from it.

Experiments:
C. albicans, strain 820 = type: cell-based, Candida albicans
Procedure: Similarly, using C. albicans as a target organism, underlayers were prepared with 10 mM sodium phosphate with and without 10% normal human serum.

[1] = Radial diffusion assay in 25 mM borate buffer (Table 4); type: cell-based; conditions: buffer (25 mM borate buffer, pH 7.4)
Procedure: Contact lens solutions are typically formulated with borate buffered physiological saline and may or may not contain EDTA in addition. Protegrins in the form of the synthetic PG-3 amide and synthetic PG acid were tested generally in the assay described in Example 1 wherein all underlay gels contain 25 mM borate buffer, pH […] tryptocase soy broth ([…] TSB powder) and […]. Additions included either 100 mM NaCl, 1 mM EDTA or a combination thereof. Other test compounds used as controls were the defensin NP-1 and lysozyme. Dose response curves were determined.

L. monocytogenes = assay: Radial diffusion assay in 25 mM borate buffer, L. monocytogenes; type: cell-based
Candida albicans = assay: Radial diffusion assay in 25 mM borate buffer, Candida albicans; type: cell-based
E. coli ML-35P = assay: Radial diffusion assay in agarose gels, E. coli; type: cell-based
Procedure: Aliquots (66 μl) of each fraction were dried by vacuum centrifugation and resuspended in 6.6 μl of 0.01% acetic acid. […] The units of activity in the radial diffusion assay were measured as described; 10 units correspond to a 1 mm diameter clear zone around the sample well.

[2] = test system: N. gonorrhoeae strains FA 19 and F 62; conditions: for log reduction in CFU per ml: strains FA 19 and F 62
Procedure: Nonpiliated transparent variants of strains FA 19 and F 62 were propagated on GCB agar plates containing glucose and iron supplements overnight at 37° C. under 3.8% V/V CO2. These strains were chosen for their adaptability to the assay.
The overnight growth is removed from the agar plate and suspended in GCB broth containing supplements and sodium bicarbonate and grown with shaking at 37° C. to mid log phase. The culture is diluted 1:100 in GCB broth to give about 10^6 CFU/ml and serial dilutions were plated onto GCB agar.
Ten μl of each dilution is added to a sterile polystyrene tube containing 90 μl of diluted bacteria and the tubes are shaken at 37° C. for 45 minutes. The contents are serially diluted 1:10 and plated on to GCB agar plates which are incubated in a CO2 incubator. CFU are counted after 24 hours and the log bactericidal activity calculated.

[3] = Autoclaving, retained antimicrobial activity; type: physicochemical; conditions: autoclaved
[4] = test system: lipid polysaccharide (LPS) of E. coli strain 0.55B5; assay: Limulus amebocyte lysate (LAL) test for endotoxin binding; type: biochemical
[5] = test system: E. coli ML-35 (serum sensitive); assay: Underlay gel assay with and without normal human serum, E. coli ML-35; type: cell-based; conditions: 10 mM sodium phosphate buffer, pH 7.4
[6] = test system: Listeria monocytogenes, strain EGD; assay: Radial diffusion assay in agarose gels, L. monocytogenes; type: cell-based
Procedure: Aliquots (66 μl) of each fraction were dried by vacuum centrifugation and resuspended in 6.6 μl of 0.01% acetic acid. Five μl samples of this concentrate were tested for antimicrobial activity against E. coliML-3, L. monocytogenes, strain EGD and C. albicans, strain 820, using radiodiffusion and gel overlay techniques as described by Lehrer, R. I. et al. J Immunol Meth (1991) 137:167-173. […] The units of activity in the radial diffusion assay were measured as described; 10 units correspond to a 1 mm diameter clear zone around the sample well. Activity was found in a large number of fractions.
The radial diffusion assay in agarose gels described in Example 1 was also used to test the activity of the purified protegrins. FIGS. 4a, 4b and 4c show the results against three test organisms in units described as above.
The antimicrobial activity of the linearalized forms was also compared with that of the native protegrins. Both linearalized and cyclic forms of the protegrins tested continue to show antimicrobial activity, although the effectiveness of these peptides as antimicrobials depends on the nature of the target organism and on the test conditions. The antimicrobial activity of native PG-1 and its linearalized form (cam-PG-1) and PG-3 and its linearalized form (cam-PG-3) were tested according to the procedure set forth in Example 1 as described by Lehrer, R. I. et al. J Immunol Meth (1991) 137:167-173.
Using standard solid phase techniques, a protegrin having the amino acid sequence of PG-1, but wherein every amino acid is in the D form was prepared. This form of protegrin was tested against E. coli, L. monocytogenes, C. albicans and other microbes in the absence and presence of protease and otherwise as described for the radiodiffusion assay in agarose gels set forth in Example 1.
The kite and bullet PG-1 compounds prepared in Example 12 were tested for antimicrobial activity using the radial diffusion assay described in Example 1 as published by Lehrer, R. I. et al., J Immunol Meth (1991) 137:167-173, except that the underlay agars contained […] sodium phosphate buffer with a final pH of 7.4. As described in Example 1, 0.3 mg/ml tripticase soy broth powder and 1% agarose were used as well in the underlay agar. In some cases 100 mM NaCl or RPMI plus 2.5% normal human serum (NHS) was added to the agar.

HIVJR-CSF and HIVJR-FL = assay: HIV infection of human peripheral blood mononuclear cells, p24 antigen
Procedure: Briefly, the mononuclear cell fraction is recovered from normal donor leukopacs from the American Red Cross using a Ficoll-hypaque density gradient. The mononuclear cells are resuspended at 1×10^6 cells per ml in RPMI 1640 medium with 20% fetal bovine serum, 1% penn/strep with fungizone and 0.5% PHA and incubated 24 hours at 37° C. in 5% CO2. The cells are centrifuged, washed and then expanded for 24 hours in growth medium.
Non-laboratory adapted, cloned HIVJR-CSF and HIVJR-FL were electroporated into the human peripheral blood mononuclear cells prepared as described above. Titers were determined and in general, multiplicities of infection (MOI) of about 4,000 infectious units per cell are used (which corresponds to 25-40 picograms per ml HIV p24 antigen in the supernatant).
In the assay, the HIV stocks prepared as above were diluted to the correct MOI and the PBM are added to 24 well plates at a concentration of 2×10^6 per ml. One μl total volume is added to each well. The peptide to be tested is added in growth medium to achieve the final desired concentration. Then the appropriate number of MOI are added. To assay viral growth, 200 μl of supernatant is removed on days 3 and 7 and the concentration of p24 antigen is determined using a commercial assay (Coulter Immunology, Hialeah, Fla.). Controls include duplicate wells containing cells alone, cells plus peptide at 5 μg/ml cells with virus but not peptide and cells with virus in the presence of AZT at 10^−5 M-10^−8 M.

[7] = 2.5 μg peptide in 0.2 ml, LPS 0.05 endotoxin unit/ml
[8] = 5 μg peptide in 0.2 ml, LPS 0.05 endotoxin unit/ml
[9] = 10 μg peptide in 0.2 ml, LPS 0.05 endotoxin unit/ml
[10] = radial diffusion, underlay agar pH 6.5

Molecule: CC[C@H](C)[C@@H]1NC(=O)[C@H](CCCNC(=N)N)NC(=O)[C@@H]2CSSC[C@@H]3NC(=O)[C@H](C)NC(=O)[C@@H](NC(=O)[C@@H](NC(=O)[C@@H](N)C(C)C)C(C)C)CSSC[C@@H](C(=O)N[C@@H](CCCNC(=N)N)C(=O)N[C@@H](CCCNC(=N)N)C(=O)O)NC(=O)[C@H](CSSC[C@H](NC(=O)[C@H](CC(C)C)NC(=O)[C@H](C)NC(=O)[C@H](CCCNC(=N)N)NC(=O)[C@H](CCCNC(=N)N)NC3=O)C(=O)N[C@@H](CC(C)C)C(=O)N3CCC[C@H]3C(=O)N[C@@H](CCCNC(=N)N)C(=O)N[C@@H](CCC(=O)O)C(=O)N[C@@H](CCCNC(=N)N)C(=O)N[C@@H](CCCNC(=N)N)C(=O)N[C@@H](C)C(=O)NCC(=O)N[C@@H](Cc3ccccc3)C(=O)N2)NC(=O)[C@H](CC(C)C)NC(=O)[C@@H]2CCCN2C(=O)[C@H](Cc2c[nH]cn2)NC(=O)[C@H]([C@@H](C)CC)NC(=O)[C@H](CCCNC(=N)N)NC(=O)CNC(=O)[C@H](CCCNC(=N)N)NC1=O [NP-1, reference compound] (H-VVCACRRALCLPRERRAGFCRIRGRIHPLCCRR-OH; disulfide 3-31, 5-20, 10-30; N-terminus and C-terminus assumed)
- activity against Candida albicans in fetal calf serum (FIG. 5c) (C. albicans, strain 820; 90% fetal calf serum): lose their ability to inactivate C. albicans
- activity against C. albicans in NaCl (FIG. 5a) (C. albicans, strain 820; in the presence of 100 mM NaCl): Neither NP-1 nor HNP-1 have this property
- ESTIMATED MINIMAL FUNGICIDAL CONCENTRATIONS [1]: 35.0 µg/mL
- ESTIMATED MINIMAL BACTERICIDAL CONCENTRATIONS (L. monocytogenes; 25 mM borate buffer): 20.0 µg/mL
- ESTIMATED MINIMAL BACTERICIDAL CONCENTRATIONS (L. monocytogenes; borate buffer + 120 mM NaCl): 11.0 µg/mL
- ESTIMATED MINIMAL BACTERICIDAL CONCENTRATIONS (L. monocytogenes; borate buffer + EDTA & NaCl): 3.8 µg/mL
- ESTIMATED MINIMAL FUNGICIDAL CONCENTRATIONS (Candida albicans; 25 mM borate buffer): 23.0 µg/mL
- ESTIMATED MINIMAL FUNGICIDAL CONCENTRATIONS (Candida albicans; borate buffer + 120 mM NaCl): 60.0 µg/mL
- ESTIMATED MINIMAL FUNGICIDAL CONCENTRATIONS (Candida albicans; borate buffer + EDTA & NaCl): 65.0 µg/mL
- activity against E. coli in NaCl (FIG. 5b) (E. coli ML-35P; in the presence of 100 mM NaCl): Neither NP-1 nor HNP-1 have this property

Molecule: CC(C)C[C@H](NC(=O)CNC(=O)CNC(=O)CNC(=O)[C@@H](N)CCCNC(=N)N)C(=O)N[C@H]1CSSC[C@@H](C(=O)N[C@H](C(=O)NCC(=O)N[C@@H](CCCNC(=N)N)C(=O)O)C(C)C)NC(=O)[C@H](C(C)C)NC(=O)[C@@H]2CSSC[C@H](NC(=O)[C@H](Cc3ccc(O)cc3)NC1=O)C(=O)N[C@@H](CCCNC(=N)N)C(=O)N[C@@H](CCCNC(=N)N)C(=O)N[C@@H](CCCNC(=N)N)C(=O)N[C@@H](Cc1ccccc1)C(=O)N2 [sPG-3 acid] (H-RGGGLCYCRRRFCVCVGR-OH; disulfide 6-15, 8-13; N-terminus assumed)
- log reduction in CFU per ml [2]: > 5 log
- ESTIMATED MINIMAL FUNGICIDAL CONCENTRATIONS [1]: 15.0 µg/mL
- ESTIMATED MINIMAL BACTERICIDAL CONCENTRATIONS (L. monocytogenes; 25 mM borate buffer): 30.0 µg/mL
- ESTIMATED MINIMAL BACTERICIDAL CONCENTRATIONS (L. monocytogenes; borate buffer + 120 mM NaCl): 7.0 µg/mL
- ESTIMATED MINIMAL BACTERICIDAL CONCENTRATIONS (L. monocytogenes; borate buffer + EDTA & NaCl): 7.0 µg/mL
- antimicrobial activity against E. coli, L. monocytogenes and C. albicans after autoclaving [3]: retaining full antimicrobial activity in all cases
- ESTIMATED MINIMAL FUNGICIDAL CONCENTRATIONS (Candida albicans; 25 mM borate buffer): 19.0 µg/mL
- ESTIMATED MINIMAL FUNGICIDAL CONCENTRATIONS (Candida albicans; borate buffer + 120 mM NaCl): 9.2 µg/mL
- ESTIMATED MINIMAL FUNGICIDAL CONCENTRATIONS (Candida albicans; borate buffer + EDTA & NaCl): 9.3 µg/mL
- gel formation in LAL test [4, 7]: trace
- gel formation in LAL test [4, 8]: no gel
- gel formation in LAL test [4, 9]: no gel

Molecule: CC(C)C[C@H](NC(=O)CNC(=O)CNC(=O)CNC(=O)[C@@H](N)CCCNC(=N)N)C(=O)N[C@H]1CSSC[C@@H](C(=O)N[C@H](C(=O)NCC(=O)N[C@@H](CCCNC(=N)N)C(N)=O)C(C)C)NC(=O)[C@H](C(C)C)NC(=O)[C@@H]2CSSC[C@H](NC(=O)[C@H](Cc3ccc(O)cc3)NC1=O)C(=O)N[C@@H](CCCNC(=N)N)C(=O)N[C@@H](CCCNC(=N)N)C(=O)N[C@@H](CCCNC(=N)N)C(=O)N[C@@H](Cc1ccccc1)C(=O)N2 [sPG-3 amide] (H-RGGGLCYCRRRFCVCVGR-NH2; disulfide 6-15, 8-13; N-terminus assumed)
- log reduction in CFU per ml [2]: > 5 log
- ESTIMATED MINIMAL FUNGICIDAL CONCENTRATIONS [1]: 13.0 µg/mL
- ESTIMATED MINIMAL BACTERICIDAL CONCENTRATIONS (L. monocytogenes; 25 mM borate buffer): 21.0 µg/mL
- ESTIMATED MINIMAL BACTERICIDAL CONCENTRATIONS (L. monocytogenes; borate buffer + 120 mM NaCl): 5.7 µg/mL
- ESTIMATED MINIMAL BACTERICIDAL CONCENTRATIONS (L. monocytogenes; borate buffer + EDTA & NaCl): 5.2 µg/mL
- antimicrobial activity against E. coli, L. monocytogenes and C. albicans after autoclaving [3]: retaining full antimicrobial activity in all cases
- ESTIMATED MINIMAL FUNGICIDAL CONCENTRATIONS (Candida albicans; 25 mM borate buffer): 19.0 µg/mL
- ESTIMATED MINIMAL FUNGICIDAL CONCENTRATIONS (Candida albicans; borate buffer + 120 mM NaCl): 7.7 µg/mL
- ESTIMATED MINIMAL FUNGICIDAL CONCENTRATIONS (Candida albicans; borate buffer + EDTA & NaCl): 7.0 µg/mL
- gel formation in LAL test ([4]; 0.5 μg peptide, 0.05 E.U.): no gel
- gel formation in LAL test ([4]; 1.0 μg peptide, 0.05 E.U.): no gel
- gel formation in LAL test ([4]; 1.0 μg peptide, 0.10 E.U.): no gel
- gel formation in LAL test ([4]; 1.0 μg peptide, 0.25 E.U.): no gel
- gel formation in LAL test [4, 7]: no gel
- gel formation in LAL test ([4]; 2.5 μg peptide, 0.05 E.U.): no gel
- gel formation in LAL test ([4]; 2.5 μg peptide, 0.10 E.U.): no gel
- gel formation in LAL test ([4]; 2.5 μg peptide, 0.25 E.U.): no gel

Molecule: CC(C)C[C@H](NC(=O)[C@H](CCCNC(=N)N)NC(=O)CNC(=O)CNC(=O)[C@@H](N)CCCNC(=N)N)C(=O)N[C@H]1CSSC[C@@H](C(=O)N[C@H](C(=O)NCC(=O)N[C@@H](CCCNC(=N)N)C(N)=O)C(C)C)NC(=O)[C@H](C(C)C)NC(=O)[C@@H]2CSSC[C@H](NC(=O)[C@H](Cc3ccc(O)cc3)NC1=O)C(=O)N[C@@H](CCCNC(=N)N)C(=O)N[C@@H](CCCNC(=N)N)C(=O)N[C@@H](CCCNC(=N)N)C(=O)N[C@@H](Cc1ccccc1)C(=O)N2 [synthetic PG-1]
- minimal bacteriocidal concentration ([5]; absence of serum): approximately 1.0 μg/ml
- minimal bacteriocidal concentration ([5]; presence of […] normal human serum): about 0.1 μg/ml

Molecule: R-G-G-R-L-C-Y-C-R-P-R-F-C-V-C-V-G-R (RGGRLCYCRPRFCVCVGR-NH2; cysteine pairing not given here) [PG-5]
- antimicrobial activity against C. albicans compared to synthetic PG-1 (FIGS. 11a-11c) (C. albicans, strain 820): comparable antimicrobial activity to PG-1
- antimicrobial activity against L. monocytogenes compared to synthetic PG-1 (FIGS. 11a-11c) [6]: comparable antimicrobial activity to PG-1
- antimicrobial activity against E. coli compared to synthetic PG-1 (FIGS. 11a-11c) (E. coli ML-35P): comparable antimicrobial activity to PG-1

Molecule: R-G-G-R-L-C-Y-C-R-R-R-F-C-I-C-V (RGGRLCYCRRRFCICV) [PG-2, protegrin isolated from porcine leukocytes]
- anti-HIV activity level relative to PG-1 (HIVJR-CSF and HIVJR-FL): approximately 5 fold less
- antifungal activity against Candida albicans (FIG. 4c) (C. albicans, strain 820; [10]): effective against the three organisms tested but was not as active as the other two peptides
- reduction in CFU per ml ([2]; 45 minutes at 37° C.): 2.6 fold
- antibacterial activity against Listeria monocytogenes (FIG. 4b) [6, 10]: effective against the three organisms tested but was not as active as the other two peptides
- antibacterial activity against E. coli (FIG. 4a) (E. coli ML-35P; [10]): effective against the three organisms tested but was not as active as the other two peptides
- gel formation in LAL test ([4]; 1.0 μg peptide in 0.2 ml, LPS 0.05 endotoxin unit/ml): no gel
- gel formation in LAL test [4, 7]: no gel
- gel formation in LAL test [4, 8]: no gel
- gel formation in LAL test [4, 9]: no gel

Molecule: lysozyme [reference compound]
- ESTIMATED MINIMAL FUNGICIDAL CONCENTRATIONS [1]: 75.0 µg/mL
